Common to all, as to format: cell-based, human
The test system of one assay is WAS−/− Jurkat T-cells. Put plainly: Lymphocyte migration on ICAM-1/SDF-1α, WAS−/− cells. As to the method:
(§1) WASp knockout Jurkat T-cell lines that express only exogenous YFP-WASp R86C (WAS^−/−/WASp R86C) or Y107C (WAS^−/−/WASp Y107C) were pretreated with SMC #34 in comparison to cells treated with the control. Cells that completely lack WASp expression (WAS^−/−) were also treated with the control. Cellular migration was tracked over a 20-min period on ICAM-1/SDF-1α-coated cover glasses, as described in Experimental procedures.
(§2) Approximately 1×10^5 lymphocytes were seeded over chambered coverslips (LabTek) pre-coated with 6 μg/ml ICAM-1 and 2 μg/ml SDF-1α. Cells were incubated at 37° C., 5% CO2 and DIC images were acquired with the Zeiss Observer Z1 inverted microscope every 5 s for 20 min under a 20× objective lens using Zen software. The random movement (Displacement and velocity) of the cells was automatically tracked and analyzed using TrackMate plugin of ImageJ software. An individual trace was assigned to each of the analyzed cells.

For assay [1], the system named is WAS−/−/WASp R86C Jurkat T-cells. Put plainly: Lymphocyte migration on ICAM-1/SDF-1α, WAS−/−/WASp R86C cells. The procedure:
as §1, §2

A further assay deals with Jurkat T cells. Put plainly: Lymphocyte activation in Jurkat T cells (CD69 and activated LFA-1, flow cytometry). Particulars: Jurkat T cells stimulated with PMA and Ionomycin, vs control. The procedure: FIGS. 9A and 9B, show 1×10^6 Jurkat T cells/ml, stimulated with PMA and Ionomycin, were treated with WASp-binding SMC #6 or control. After incubation, the cells were stained with anti-activated LFA-1 antibody (KIM127), followed by staining with Alexa488-Fluor goat anti-mouse IgG1 secondary antibody (FIG. 9B). Cells were co-stained with PE-Cy5™-conjugated mouse anti-human CD69 and lymphocyte activation was measured by flow-cytometry as described in the Experimental procedures (FIG. 9A). Histograms of negative control versus SMC #6 are presented.
PBMCs or Jurkat cells (about 3×10^5 cells) were incubated for 4 h, at 37° C. with 50 ng/ml PMA and 250 ng/ml lonomycin, or 40 ng/ml PMA and 6 μM Ionomycin, respectively, or left untreated. After incubation, the cells were collected and stained with 1 μg/ml anti-active human LFA-1 antibody (purified from KIM127 hybridoma sup, ATCC Cat #: CRL-2838, Sigma) for 30 min in 37° C., followed by staining with Alexa488-Fluor goat anti-mouse IgG1 secondary antibody (Molecular Probes, Cat #: A-21121), 30 min on ice. Cells were then co-stained with PE-Cy5™-conjugated mouse anti-human CD69 (BD Pharmingen, Cat #: 555532) to measure lymphocyte activation.
Once activated, lymphocytes proliferate to effectively amplify the immune response. […]
On the technique in general: In flow cytometry, cells or beads pass a laser one at a time.

Regarding `CC1CCCC(C)N1C(=O)CSc1nnc(COc2cccc3cccnc23)o1` (stereo not shown) [SMC #34, 1-(2,6-dimethylpiperidin-1-yl)-2-[[5-(quinolin-8-yloxymethyl)-1,3,4-oxadiazol-2-yl]sulfanyl]ethanone], the migration result in the assay on WAS−/− Jurkat T-cells is listed as “completely restored the migration”; in assay [1] (WAS−/−/WASp R86C cells, vs control), “significantly increased”. This compound came in with a mean cell displacement in assay [1] (WAS−/−/WASp R86C, 20 min, mean ± SE) of 53.65±4.88.

For `CC(=O)N[C@H]1C[C@@H](c2ccc3c(c2)nnn3C)O[C@@H](c2ccc(Cl)cc2)C1` [SMC #6, N-[(2R,4R,6S)-2-(4-chlorophenyl)-6-(1-methylbenzotriazol-5-yl)oxan-4-yl]acetamide], the “lymphocyte activation (CD69, activated LFA-1)” value in the assay on Jurkat T cells is listed as “upregulation”.

These data come from patent US12150940B2, “WASp-protecting small molecules, compositions, methods and uses thereof in the treatment of innate and acquired immune-related disorders or conditions” (BAR ILAN UNIVERSITY, priority 2016, dated 2024).
